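1) Cells in 96-well plates. 2) Compound, 48 h, 5 concentrations. 3) Linear interpolation between surrounding doses. 4) Unreached endpoint = highest concentration. GI50 marks 50% less growth.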 Calls of active or inactive are those of the source. Rule as the data show it: active = GI50 up to about 1.1 µM and inactive = higher. Where a SMILES comes first, the peptide text is derived from it. The star is where a group is joined. CH2Cl = ClC*
How the values were obtained:
Experiment in all cases: NCI anticancer screen, dose series, 48 h
HOP-62 = system: HOP-62
UACC-257 = system: UACC-257
Malme-3M = system: Malme-3M
SF-539 = system: SF-539
COLO 205 = system: COLO 205
KM12 = system: KM12
MDA-MB-435 = system: MDA-MB-435
SK-OV-3 = system: SK-OV-3
SK-MEL-2 = system: SK-MEL-2
UO-31 = system: UO-31
U-251 = system: U-251
NCI/ADR-RES = system: NCI/ADR-RES
NCI-H23 = system: NCI-H23
NCI-H522 = system: NCI-H522
A498 = system: A498
SW-620 = system: SW-620
T47D = system: T47D
RPMI-8226 = system: RPMI-8226

Measured: GI50

O=C(CCN1CCOCC1)Nc1ccc(F)cc1F
inactive: HOP-62 > 100 µM | UACC-257 > 100 µM | Malme-3M > 100 µM | SF-539 > 100 µM | COLO 205 > 100 µM | KM12 > 100 µM | MDA-MB-435 > 100 µM | SK-OV-3 > 100 µM | SK-MEL-2 > 100 µM | UO-31 > 100 µM | U-251 > 100 µM | NCI/ADR-RES > 100 µM | NCI-H23 > 100 µM | NCI-H522 > 100 µM | A498 > 100 µM | SW-620 > 100 µM | T47D > 100 µM | RPMI-8226 > 100 µM

C=CCn1c(=O)c2ccccc2[n+]2c(-c3cccc([N+](=O)[O-])c3)csc12
inactive: HOP-62 76.7 µM | UACC-257 36.3 µM | Malme-3M > 100 µM | SF-539 96.8 µM | COLO 205 24.8 µM | KM12 45.4 µM | MDA-MB-435 40.8 µM | SK-OV-3 68.1 µM | SK-MEL-2 30.6 µM | UO-31 28.6 µM | U-251 77.4 µM | NCI/ADR-RES 17.1 µM | NCI-H23 54.5 µM | NCI-H522 36.1 µM | A498 31.6 µM | SW-620 > 100 µM | T47D 19.7 µM | RPMI-8226 30.7 µM

CC(=O)NC(CC(C)C)C(=O)NC(Cc1ccccc1)C(=O)CCl (stereo not drawn) (Ac-Leu-Phe-CH2Cl; configuration not given here)
inactive: HOP-62 18.3 µM | UACC-257 7.73 µM | Malme-3M 5.05 µM | SF-539 18.1 µM | COLO 205 5.43 µM | KM12 18.7 µM | MDA-MB-435 12.3 µM | SK-OV-3 18.1 µM | SK-MEL-2 10.3 µM | UO-31 14.6 µM | U-251 16.6 µM | NCI/ADR-RES 10.9 µM | NCI-H23 13.1 µM | NCI-H522 2.51 µM | A498 18.8 µM | SW-620 2.67 µM | T47D 7.82 µM | RPMI-8226 2.69 µM

O=S(=O)(O)c1ccc2c(/N=N/c3cccc4ccccc34)c(O)ccc2c1
inactive: HOP-62 > 100 µM | UACC-257 > 100 µM | Malme-3M > 100 µM | COLO 205 > 100 µM | KM12 > 100 µM | MDA-MB-435 > 100 µM | SK-OV-3 > 100 µM | SK-MEL-2 > 100 µM | UO-31 > 100 µM | U-251 87.1 µM | NCI/ADR-RES > 100 µM | NCI-H23 > 100 µM | NCI-H522 > 100 µM | A498 > 100 µM | SW-620 > 100 µM | T47D > 100 µM | RPMI-8226 > 100 µM

Cc1cc(S(=O)(=O)Nc2nnc3cc(C(F)(F)F)cc(C)n23)c(S)cc1Cl
inactive: HOP-62 35.2 µM | UACC-257 > 100 µM | Malme-3M > 100 µM | SF-539 34.4 µM | COLO 205 > 100 µM | KM12 45.6 µM | MDA-MB-435 > 65.8 µM | SK-OV-3 38.3 µM | SK-MEL-2 30.7 µM | UO-31 39.1 µM | U-251 29 µM | NCI/ADR-RES 45.5 µM | NCI-H23 > 100 µM | NCI-H522 > 100 µM | A498 18.9 µM | SW-620 > 100 µM | T47D > 100 µM | RPMI-8226 > 100 µM

COC1CC(OC(=O)c2ccccc2)C(OC(=O)c2ccccc2)C(C)O1 (stereo not drawn)
inactive: HOP-62 > 100 µM | UACC-257 > 100 µM | Malme-3M > 100 µM | SF-539 > 100 µM | COLO 205 > 100 µM | KM12 > 100 µM | MDA-MB-435 > 100 µM | SK-OV-3 > 100 µM | SK-MEL-2 > 100 µM | UO-31 > 100 µM | U-251 > 100 µM | NCI/ADR-RES > 100 µM | NCI-H23 > 100 µM | NCI-H522 > 100 µM | A498 > 100 µM | SW-620 > 100 µM | T47D > 100 µM | RPMI-8226 > 100 µM

CC(C)=CCC/C(C)=C/CO [GERANIOL]
inactive: HOP-62 > 100 µM | UACC-257 > 100 µM | Malme-3M > 100 µM | SF-539 > 100 µM | COLO 205 > 100 µM | KM12 > 100 µM | MDA-MB-435 > 100 µM | SK-OV-3 > 100 µM | SK-MEL-2 > 100 µM | UO-31 > 100 µM | U-251 > 100 µM | NCI/ADR-RES > 100 µM | NCI-H23 > 100 µM | NCI-H522 > 100 µM | A498 > 100 µM | SW-620 > 100 µM | T47D > 100 µM | RPMI-8226 > 100 µM

COc1ccc2oc(=O)c(CC=C(C)C)c(O)c2c1C
inactive: HOP-62 > 100 µM | UACC-257 > 100 µM | Malme-3M > 100 µM | SF-539 > 100 µM | COLO 205 > 100 µM | KM12 > 100 µM | MDA-MB-435 > 100 µM | SK-OV-3 > 100 µM | SK-MEL-2 > 100 µM | UO-31 > 100 µM | U-251 > 100 µM | NCI/ADR-RES > 100 µM | NCI-H23 > 100 µM | NCI-H522 > 100 µM | A498 > 100 µM | SW-620 > 100 µM | T47D > 100 µM | RPMI-8226 > 100 µM
